Assays:
Assay in all cases: relative viability (nuclei count vs DMSO), 5 days (fraction); higher = more cells survive
[1] = compound: CCn1c(-c2nonc2N)nc2cnc(Oc3cccc(NC(=O)c4ccc(OCCN5CCOCC5)cc4)c3)cc21 + COc1cccc2cc(-c3nc([C@H]4CC[C@H](C(=O)O)CC4)n4ncnc(N)c34)[nH]c12 [OSI-027] (partner 0.5 µM)
Method in brief: (§1)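 One day after seeding in 1536-well plates, lung cancer cell lines were dosed by pin tool. Dosing was either single-drug or a fixed anchor-drug dose plus five library-drug doses (not always all listed) in √10 steps. After 5 days, nuclei were stained in one fix-and-stain step and counted on 4× images, and relative viability is the nuclei count of treated wells over that of vehicle wells, given as the median of duplicate plates.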

[2] = compound: CCn1c(-c2nonc2N)nc2cnc(Oc3cccc(NC(=O)c4ccc(OCCN5CCOCC5)cc4)c3)cc21 + O=C(c1cc(Cc2n[nH]c(=O)c3ccccc23)ccc1F)N1CCN(C(=O)C2CC2)CC1 [Olaparib] (partner 8 µM)
Method in brief: as §1

Mirin + Pictilisib = compound: N=C1NC(=O)/C(=C/c2ccc(O)cc2)S1 [Mirin] + CS(=O)(=O)N1CCN(Cc2cc3nc(-c4cccc5[nH]ncc45)nc(N4CCOCC4)c3s2)CC1 [Pictilisib] (partner 1 µM)
Method in brief: as §1

Mirin + Olaparib = compound: N=C1NC(=O)/C(=C/c2ccc(O)cc2)S1 [Mirin] + O=C(c1cc(Cc2n[nH]c(=O)c3ccccc23)ccc1F)N1CCN(C(=O)C2CC2)CC1 [Olaparib] (partner 8 µM)
Method in brief: as §1

Cell Line	relative viability ([1]; first compound 0.04 µM)	relative viability ([1]; first compound 0.1265 µM)	relative viability ([1]; first compound 0.4 µM)	relative viability ([1]; first compound 1.265 µM)	relative viability ([1]; first compound 4 µM)	relative viability ([2]; first compound 0.04 µM)	relative viability ([2]; first compound 0.1265 µM)	relative viability ([2]; first compound 0.4 µM)	relative viability ([2]; first compound 1.265 µM)	relative viability ([2]; first compound 4 µM)	relative viability (Mirin + Pictilisib; first compound 0.25 µM)	relative viability (Mirin + Pictilisib; first compound 0.7906 µM)	relative viability (Mirin + Pictilisib; first compound 2.5 µM)	relative viability (Mirin + Pictilisib; first compound 7.906 µM)	relative viability (Mirin + Pictilisib; first compound 25 µM)	relative viability (Mirin + Olaparib; first compound 0.25 µM)	relative viability (Mirin + Olaparib; first compound 0.7906 µM)	relative viability (Mirin + Olaparib; first compound 2.5 µM)	relative viability (Mirin + Olaparib; first compound 7.906 µM)	relative viability (Mirin + Olaparib; first compound 25 µM)
NCI-H1355	0.477	0.385	0.197	0.306	0.312	0.731	0.832	0.739	0.649	0.61	0.48	0.254	0.419	0.427	0.505	0.681	0.747	0.692	0.755	0.745
EKVX	0.839	0.77	0.613	0.65	0.545	1.18	0.856	0.802	0.635	0.79	0.39	0.422	0.396	0.394	0.378	0.857	0.916	0.839	0.758	0.993
NCI-H460	0.741	0.561	0.364	0.163	0.0569	0.545	0.383	0.458	0.085	0.138	0.347	0.152	0.347	0.333	0.235	0.505	0.447	0.438	0.413	0.557
NCI-H1975	0.616	0.465	0.322	0.196	0.208	0.9	0.772	0.623	0.389	0.271	0.307	0.251	0.302	0.355	0.282	0.892	0.83	0.819	0.855	0.715
HCC-78	0.43	0.429		0.574	0.625	0.789	0.97		0.832	0.946	0.203	0.2	0.205	0.207	0.215	0.786	0.628	0.718	0.852	0.732
NCI-H2085	1.02	0.679	0.602	0.664	0.551	0.832	0.693	0.632	0.573	0.559	0.417	0.398	0.484	0.462	0.468	0.773	0.752	0.773	0.949	0.808
H3255	0.831	0.713	0.603	0.506	0.638	0.532	0.542	0.501	0.364	0.383	0.516	0.444	0.493	0.306	0.564	0.55	0.539	0.541	0.537	0.547
NCI-H2126	0.811	0.754			0.899	1.09	0.966	0.907	0.889	0.854	0.533	0.406	0.465	0.456	0.448	0.929	0.925	0.951	0.947	0.959
